Entries after “also recorded” stand apart in the source; their conditions may differ.
Assays:
calf thymus DNA (ctDNA) = assay: DNA melting temperature analysis (UV thermal denaturation); type: binding
Method: (§1) Conditions: 2.09 mM NaH2PO4, 7.13 mM Na2HPO4, 928 μM Na2EDTA, 1.01 mM DMSO, pH 7.18. The imine 15a was incubated with ctDNA for 5 min, 1 h, 3 h, 6 h, or 15 h prior to UV thermal denaturation experiments (260 nm, heating rate: 0.5° C./min). [DNA]=32.0 mM bps. The Tm was defined as the temperature at which half of the duplex DNA was unwound, and was determined by the maximum of the first derivative of the thermal denaturation profile.
as §1, with “pyridone 17a” for “imine 15a”, “for” for “for 5 min, 1 h,”, “3” for “3 h, 6 h, or 15”
A DNA melting temperature analysis was conducted to determine if the variance in DNA alkylation activity between the pyridones and the unsaturated imines was due to differences in DNA binding affinity. The hyperchromicity of calf thymus DNA (ctDNA) with increasing temperature was measured at 260 nm in the presence of varying concentrations of 15a or 17a. The Tm was defined as the temperature at which half of the duplex DNA was unwound and was determined by the maximum of the first derivative of the thermal denaturation profile. […] The inventors hypothesized that this was due to an initial binding of 15a to the duplex followed by slow alkylation and degradation. To probe this, they repeated the plasmid alkylation assay using 15a and evaluated the extent of DNA alkylation as a function of time.
UV thermal denaturation samples were prepared by mixing calf thymus DNA [32.0 mM base pairs (bps)] in 2.09 mM NaH2PO4, 7.13 mM Na2HPO4, 928 μM Na2EDTA, 1.01 mM DMSO, pH 7.18 to a final volume of 1.0 mL. Samples were subjected to sonication (6 h) at 25° C. to effect complete dissolution. After incubation with 15a, 15b, 17a, and 17b for 5 min, 1 h, 3 h, 6 h, or 15 h, the UV thermal denaturation spectra of the samples were recorded at 260 nm as a function of temperature (55→80° C., heating rate: 0.5° C./min). First derivative plots were used to determine the denaturation temperature.

linearized pBR322 DNA = assay: DNA alkylation assay (electrophoretic gel assay) with linearized pBR322 DNA; type: biochemical; settings: 37° C.; for DNA cross-linking: 10 μM
Method: FIG. 17 A. DNA alkylation assay employing linearized pBR322 DNA and the pyridone derivatives 17a or 17b or the unsaturated imines 15a or 15b. Conditions: Linearized pBR322 DNA (20 μM in base pairs (bps)), 15a (100, 10, 1, 0.5, or 0.1 μM), 15b (500, 100, 10, or 1 μM), 17a (500 or 100 μM) or 17b (500 or 100 μM), 37° C., 15 h. Cisplatin (CP; 100 μM) and methyl methanesulfonate (MMS; 500, 100, or 10 μM) were used as positive controls for DNA cross-linking and alkylation, respectively. DNA was visualized using SybrGold. B. DNA alkylation assay employing linearized pBR322 DNA and the unsaturated imine 15a. Conditions: Linearized pBR322 DNA (20 μM in base pairs), 15a (100, 10, 1, 0.1, 0.05, 0.01, or 0.005 μM), 37° C., 15 h.
FIG. 19 A. Structures of the dimer 15c and the gem-dimethyl derivative 15d. B. DNA alkylation assay employing linearized pBR322 DNA and the dimer 15c or the gem-dimethyl derivative 15d. Conditions: Linearized pBR322 DNA (20 μM in base pairs), 15c (10 μM) or 15d (500 or 100 μM), 37° C., 0.1-15 h.
B. DNA alkylation assay employing linearized pBR322 DNA and the unsaturated lactam 19 or the unsaturated imine 15j. Conditions: Linearized pBR322 DNA (20 μM in base pairs), 19 (500, 100, 10, or 1 μM) or 15j (500, 100, 10, or 1 μM), 37° C., 15 h.
Conditions: Linearized pBR322 DNA (20 μM in base pairs), 15h (1, 0.1, or 0.01 μM), 15i (1, 0.1, or 0.01 μM), 15f (1, 0.1, or 0.01 μM), 15g (1, 0.1, or 0.01 μM), 15a (1, 0.1, or 0.01 μM), 15e (1, 0.1, or 0.01 μM), 37° C., 15 h. Methyl methanesulfonate (MMS; 500 or 100 μM) was used as a positive control for DNA alkylation. DNA was visualized using SybrGold.
The activity of 15a, 15b, 17a, and 17b was evaluated in a DNA alkylation assay. Plasmid pBR322 DNA was treated with EcoRI-HF in Cutsmart buffer, and the resulting linearized DNA was incubated with 15a, 15b, 17a, or 17b for 15 h at 37° C. The DNA was then denatured, and the sample was eluted on a 1% neutral agarose gel. DNA was visualized with SybrGold. Cisplatin (CP, 100 μM) and methyl methanesulfonate (MMS, 500, 100, or 10 μM) were used as positive controls for DNA cross-linking and alkylation, respectively. […] The streaking of DNA induced by 15a and 15b parallels that observed with 500 μM of MMS and derives from the presence of shorter DNA strands that are formed by thermal or alkaline denaturation of extensively-alkylated (or in the case of MMS, methylated) DNA.^16 Further evidence for direct alkylation by 15a and 15b is presented in the cross-linking study outlined below.
The […] plasmid pBR322 was propogated in DH5a, isolated by MaxiPrep (Qiagen), and linearized with 5 U/μg EcoRI (NEB). The cut plasmid was column purified and eluted into 10 mM Tris pH 8.0. For each reaction, 130 ng of DNA (20 μM base pairs) was incubated with compound in a 10 μL total volume. Reactions proceeded for 15 h at 37° C., unless otherwise noted. Compounds were diluted in DMSO such that each reaction consisted of a fixed 5% DMSO concentration. Pure MMS (Alfa Aesar) and cisplatin (Biovision) stock solutions were diluted into DMSO immediately prior to use. After incubation, 35 μL of denaturation buffer (6% sucrose, 1% sodium hydroxide, 0.04% bromophenol blue) was added to each reaction. Non-denatured control samples were diluted with 6% sucrose, 0.04% bromophenol blue. Samples were vortexed for 1 min, left at room temperature for 15 min, and then immediately frozen at −80° C. Thawed samples were then loaded onto a 1% agarose Tris-Borate-EDTA (TBE) gel stained with SybrGold (Molecular Probes) and run in TBE buffer for 1 hour at 120V.

[1] = tested on: colibactin peptidase ClbP; assay: LC-HRMS analysis for the in vivo cleavage of synthetic 6 by ClbP; type: cell-based; settings: 50 μM in E. coli DH10B pClbP culture, 37° C., 24 h
Method: E. coli DH10B pClbP (pPEB018) and the bacteria harboring the empty vector pBAD18 (as previously reported^3) were grown in LB medium supplemented with 100 μg/mL ampicillin. The next morning, 50 μL of these saturated cultures were used to inoculate 2.5 mL of LB medium containing 100 μg/mL ampicillin. Cultures were incubated at 37° C. with shaking at 250 rpm. At an OD600 of 0.4-0.5, cultures were induced with L-arabinose and left to grow for another 30 min. Then, the synthetic 6 substrate (10 mM stock solution in DMSO) or DMSO (vector control) was added to each culture to a final concentration of 50 μM, and incubated at 37° C. for 24 h. At the designated time point, the cultures were extracted with organic solvent and analyzed by LC-HRMS on a Phenomenex C18-A column (150×4.6 mm, 180 Å, 5 μm particle size, Agilent) with a water:acetonitrile (ACN) gradient containing 0.1% formic acid 0.7 mL/min: 1-2 min, 5% ACN; ramp to 98% ACN over 18 min; hold for 5 min at 100% ACN.

[2] = tested on: colibactin peptidase ClbP; settings: earlier publication (ref. 10); cited from earlier work
[3] = 2 bp equiv, incubation 5 min to 15 h
[4] = linearized pBR322 DNA (20 μM bp), 15 h, concentrations up to 500 μM
[5] = linearized pBR322 DNA (20 μM bp), 15 h

CNC(=O)c1csc(-c2csc(Cn3c(CC[C@H](C)N)c4c(cc3=O)C3(CC3)NC4=O)n2)n1 [17b]
modulation of the melting temperature of calf thymus DNA (calf thymus DNA (ctDNA); [3]): no significant modulation | DNA alkylation activity (linearized pBR322 DNA; [4]): neither of the pyridone derivatives 17a or 17b displayed measurable activity

C[C@@H](CCC(=O)C1=C(CC(=O)N(C)Cc2nc(-c3nc(C(=O)NCCN(C)C)cs3)cs2)C2(CC2)NC1=O)NC(=O)OC(C)(C)C [compound 19]
DNA alkylation activity (linearized pBR322 DNA; 500 μM, 15 h (FIG. 21B)): weak DNA alkylation activity

C[C@H]1CCC(C2=C(CC(=O)N(C)Cc3nc(-c4nc(C(=O)NCCN(C)C)cs4)cs3)C3(CC3)NC2=O)=N1 [15j]
DNA alkylation / decomposition of the DNA (linearized pBR322 DNA; 10 or 1 μM, 15 h (FIG. 21B)): extensive decomposition of the DNA | DNA alkylation potency relative to lactam 19 (linearized pBR322 DNA; 15 h (FIG. 21B)): significantly more potent

C[C@H]1CCC(C2=C(CC(=O)NCc3nc(-c4nc(C(=O)NCCN(C)C)cs4)cs3)C3(CC3)NC2=O)=N1 [15a]
time dependence of the effect on melting temperature / duplex stability (calf thymus DNA (ctDNA); 1 or 2 bp equiv, incubation 5 min, 1 h, 3 h, 6 h or 15 h): time-dependent effects on duplex stability; also recorded: Time-dependent modulation of the melting temperature | duplex stability (calf thymus DNA (ctDNA); longer incubations (3-15 h), 1 or 2 bp equiv): duplex stability decreased | increase in Tm (calf thymus DNA (ctDNA); rligand/bp=2): 1.8 °C | duplex stability (calf thymus DNA (ctDNA); times less than 1 h, 1 or 2 bp equiv): stabilization of the duplex was observed | extent of DNA damage, dose response (linearized pBR322 DNA; 5 nM, 15 h (FIG. 17B)): negligible | extent of DNA alkylation as a function of time (linearized pBR322 DNA; 1 μM, 0.1-15 h (FIG. 18C)): alkylation activity correlated approximately with the decrease in duplex stability | DNA damage, dose response (linearized pBR322 DNA; 50 or 10 nM, 15 h (FIG. 17B)): small amounts of DNA damage | DNA alkylation, dose response (linearized pBR322 DNA; concentrations as low as 100 nM, 15 h (FIG. 17B)): extensive DNA alkylation | DNA alkylation (linearized pBR322 DNA; [5]): extensively alkylated DNA | DNA alkylation activity relative to 15b (linearized pBR322 DNA; linearized pBR322 DNA, 15 h (FIG. 17A)): significantly more active than the N-methylamide 15b

CCCCCCCCCCCCCC(=O)N[C@H](CC(N)=O)C(=O)N[C@@H](C)CCc1c2c(cc(=O)n1Cc1nc(-c3nc(C(=O)O)cs3)cs1)C1(CC1)NC2=O [precolibactin C (6)]
cleavage by ClbP [1]: converted to N-myristoyl-D-Asn and its corresponding colibactin by colibactin peptidase ClbP; also recorded: converted to N-myristoyl-D-Asn and its corresponding colibactin in a ClbP-dependent manner | substrate for ClbP [2]: demonstrated to be a substrate for ClbP

CNC(=O)c1csc(-c2csc(CNC(=O)CC3=C(C4=N[C@@H](C)CC4)C(=O)NC34CC4)n2)n1 [15b]
modulation of the melting temperature of calf thymus DNA (calf thymus DNA (ctDNA); 1 bp equiv, incubation 5 min, 3 h or 15 h): no significant modulation | modulation of the melting temperature of calf thymus DNA (calf thymus DNA (ctDNA); [3]): no significant modulation | DNA alkylation (linearized pBR322 DNA; [5]): extensively alkylated DNA

C[C@H]1CCC(C2=C(CC(=O)NCc3nc(-c4nc(C(=O)NCCCN(C)CCCNC(=O)c5csc(-c6csc(CNC(=O)CC7=C(C8=N[C@@H](C)CC8)C(=O)NC78CC8)n6)n5)cs4)cs3)C3(CC3)NC2=O)=N1 [15c]
DNA cross-linking (linearized pBR322 DNA; 3 h): a clear cross-linked band | DNA cross-linking (linearized pBR322 DNA; later timepoints (6 or 15 h)): this cross-linked band diminished

C[C@H]1CCC(C2=C(CC(=O)NCc3nc(-c4nc(C(=O)NCCN(C)C)cs4)cs3)C(C)(C)NC2=O)=N1 [15d]
DNA alkylation activity (linearized pBR322 DNA; [4]): did not alkylate DNA

C[C@H](N)CCc1c2c(cc(=O)n1Cc1nc(-c3nc(C(=O)NCCN(C)C)cs3)cs1)C1(CC1)NC2=O [17a]
effect of increasing amounts on melting temperature of ctDNA (calf thymus DNA (ctDNA); incubated with ctDNA for 3 h, 260 nm): dose-dependent increase in the melting temperature | increase in Tm (calf thymus DNA (ctDNA); ratio of compound to base pairs of 4.0, incubated 3 h): 3.8 °C | increase in Tm (calf thymus DNA (ctDNA); rligand/bp=2): 2.8 °C | DNA alkylation activity (linearized pBR322 DNA; [4]): neither of the pyridone derivatives 17a or 17b displayed measurable activity

From patent US20190031650A1, “DNA ALKYLATION AND CROSS-LINKING AGENTS AS COMPOUNDS AND PAYLOADS FOR TARGETED THERAPIES” (YALE UNIVERSITY, priority 2016, published 2019)
